Reference: the NIST ThermoML archive (doi:10.1021/je040008e)

What was measured:
[1] = 101.33 kPa, Liquid; for speed of sound: Linear variable-path acoustic interferometer
[2] = xn = mol fraction of the nth substance listed; conditions: 308.15 K, 101.33 kPa, Liquid; for speed of sound: Linear variable-path acoustic interferometer

CC(=O)c1ccc(Cl)cc1 [4'-chloroacetophenone]
[1]
Conditions | mass density [kg/m3] | speed of sound [m/s]
298.15 K | 1188.9 | –
308.15 K | – | 1390

CC(=O)c1ccc(Cl)cc1 [4'-chloroacetophenone] + CNC(C)=O
[2]
Conditions | excess molar volume [m3/mol] | speed of sound [m/s]
x1 = 0.0644 | -2.11e-07 | 1363
x1 = 0.1311 | -3.3e-07 | 1366
x1 = 0.2036 | -4.53e-07 | 1369.3
x1 = 0.2825 | -5.363e-07 | 1372.4
x1 = 0.3696 | -5.889e-07 | 1375.8
x1 = 0.4664 | -5.934e-07 | 1379.5
x1 = 0.5774 | -5.393e-07 | 1382.6
x1 = 0.7003 | -4.298e-07 | 1385.1
x1 = 0.8405 | -2.52e-07 | 1387.6
x1 = 1 | 0 | 1390

CC(=O)c1ccc(C)cc1 [4'-methylacetophenone]
[1], 308.15 K
Conditions | mass density [kg/m3] | speed of sound [m/s]
– | 996.3 | 1437.9

CC(=O)c1ccc(C)cc1 [4'-methylacetophenone] + CNC(C)=O
[2]
Conditions | excess molar volume [m3/mol] | speed of sound [m/s]
x1 = 0.0617 | -1.519e-07 | 1368.9
x1 = 0.1321 | -2.517e-07 | 1377.7
x1 = 0.2004 | -3.355e-07 | 1385.8
x1 = 0.2836 | -3.41e-07 | 1394.4
x1 = 0.3629 | -3.52e-07 | 1402.4
x1 = 0.4632 | -3.458e-07 | 1411.5
x1 = 0.5582 | -3.114e-07 | 1418.4
x1 = 0.689 | -2.508e-07 | 1426.9
x1 = 0.8305 | -1.92e-07 | 1434
x1 = 1 | 0 | 1437.9

CNC(C)=O [N-methylacetamide]
[1], 308.15 K
Conditions | mass density [kg/m3] | speed of sound [m/s]
– | 949.7 | 1360

CNC(C)=O [N-methylacetamide] + CC(=O)c1ccc(C)cc1
[2], x2 = 0
Conditions | excess molar volume [m3/mol] | speed of sound [m/s]
– | 0 | 1360

CNC(C)=O [N-methylacetamide] + CC(=O)c1ccc(Cl)cc1
[2], x2 = 0
Conditions | excess molar volume [m3/mol] | speed of sound [m/s]
– | 0 | 1360

CNC(C)=O [N-methylacetamide] + CC(=O)c1ccccc1
[2]
Conditions | excess molar volume [m3/mol] | speed of sound [m/s]
x2 = 0 | 0 | 1360
x2 = 0.0686 | -1.018e-07 | 1368.7
x2 = 0.138 | -1.732e-07 | 1376.6
x2 = 0.2189 | -2.437e-07 | 1386.8
x2 = 0.3143 | -2.579e-07 | 1398
x2 = 0.3938 | -2.476e-07 | 1406.1
x2 = 0.4912 | -2.365e-07 | 1415.3
x2 = 0.6042 | -1.695e-07 | 1424.2
x2 = 0.7223 | -1.212e-07 | 1431.4
x2 = 0.8517 | -5.09e-08 | 1438

CNC(C)=O [N-methylacetamide] + CCC(=O)c1ccccc1
[2], x2 = 0
Conditions | excess molar volume [m3/mol] | speed of sound [m/s]
– | 0 | 1360

CC(=O)c1ccccc1 [acetophenone]
[1]
Conditions | mass density [kg/m3] | speed of sound [m/s]
298.15 K | 1023.1 | –
308.15 K | – | 1445

CC(=O)c1ccccc1 [acetophenone] + CNC(C)=O
[2], x1 = 1
Conditions | excess molar volume [m3/mol] | speed of sound [m/s]
– | 0 | 1445

CCC(=O)c1ccccc1 [ethyl phenyl ketone]
[1]
Conditions | mass density [kg/m3] | speed of sound [m/s]
298.15 K | 1009.2 | –
308.15 K | – | 1432.1

CCC(=O)c1ccccc1 [ethyl phenyl ketone] + CNC(C)=O
[2]
Conditions | excess molar volume [m3/mol] | speed of sound [m/s]
x1 = 0.06 | -2.003e-07 | 1368.3
x1 = 0.1269 | -3.185e-07 | 1374.7
x1 = 0.1862 | -3.356e-07 | 1380.6
x1 = 0.2778 | -2.912e-07 | 1388.9
x1 = 0.3654 | -2.106e-07 | 1397.8
x1 = 0.4649 | -1.397e-07 | 1406.6
x1 = 0.5709 | -8.14e-08 | 1413.5
x1 = 0.6929 | -1.92e-08 | 1419.6
x1 = 0.8315 | 3.82e-08 | 1426.6
x1 = 1 | 0 | 1432.1
